Assay results taken from patent US12570645B2, “Uses of p53 x-ray co-crystal structures” (PMV Pharmaceuticals, Inc., priority 2020, dated 2026).

target: T1, p53 Y220C (Homo sapiens, UniProt P04637, P309S/R273H/Y220C); test: HTRF / TR-FRET in vitro DNA binding activity assay (SC150); type: biochemical; conditions: concentration required to increase DNA binding activity of p53 Y220C by 50%; TABLE 10
T1 construct: made in house; host or cells: E. coli
Description: The ability of a compound of the invention to stabilize p53 Y220C and increase the DNA binding activity of p53 Y220C was measured by a homogeneous time-resolved fluorescence (HTRF) assay. Recombinant His-tagged p53 Y220C used in the HTRF assay was expressed in the bacterium E. coli. The recombinant protein was a truncation mutant containing only amino acids 94-312 of p53, which encompassed the DNA binding domain (DBD) of p53 (SEQ ID NO.: 1). The His-tagged p53 Y220C was tested for DNA binding ability with a consensus sequence of DNA (DNA duplex with a sequence of 5′-[…]-3′; SEQ ID NO.: 2). SEQ ID NO.: 2 was then conjugated with a biotin label and used in the activity assay.
The binding of the recombinant His-tagged p53 Y220C protein and the biotin-labeled consensus DNA was measured using fluorescence resonance energy transfer (FRET). For the FRET assay, the binding between the p53 mutant and the DNA sequence was measured by detecting the fluorescence of the interaction between an anti-His antibody conjugated to allophycocyanin (APC) and streptavidin conjugated to europium to detect the biotin-labeled DNA.
The test compounds were prepared as 4.5 mM stock solutions in dimethyl sulfoxide (DMSO). The compounds of the disclosure were used to test the stabilization of p53 Y220C and increase in DNA binding activity of p53 Y220C. The stock solutions were then serially diluted 3-fold in DMSO, and 1.2 μL of the diluted solutions was added to each well of a 384-well polypropylene black plate. 30 μL of a 181 nM solution of the recombinant His-tagged p53 Y220C protein and 12.1 nM of APC conjugated anti-His tag antibody in ice-cold Assay Buffer 1 (50 mM Tris-HCl, pH 7.4; 75 mM KCl; 0.75 mM DTT; and 0.2 mg/mL bovine serum albumin (BSA) was added to each well containing the test compounds.
As a background control, 30 μL of Assay Buffer 1 containing 12.1 nM of APC anti-His antibody was also added into a second set of serially-diluted compound plates. The test and control samples were spun at 1200 rpm for 1 minute and incubated at room temperature for 15 minutes. The samples were then further incubated at either 27° C. or 29° C. for 60 min. Five microliters of 311 nM biotin labeled consensus DNA (SEQ ID NO.: 2) and 13.03 nM europium-conjugated streptavidin in Assay Buffer 2 (50 mM Tris-HCl, pH 7.4; 75 mM KCl; and 0.2 mg/mL BSA) were added to each well for both the test and control plates. The plates were spun at 1200 rpm for 1 minute and incubated at room temperature for 20 minutes. The assay signals were monitored by reading excitation at 340 nm, and emission fluorescence at 615 nm and 665 nm on a plate reader.
Normalized time-resolved fluorescence resonance energy transfer (TR-FRET) assay signal (Rn) was calculated by the formula: Rn=[(A−Ba−CD)/(D−Bd)](Dc−Bd) where A was the fluorescence intensity of the sample at 665 nm; D was the fluorescence intensity of the sample at 615 nm; Ba and Bd were plate background readings at 665 nm and 615 nm, respectively; and Dc was the fluorescence intensity of 1.8 nM Eu-SA in the assay buffer at 615 nm.
The cross talk factor (C) was determined by the following formula: C═(Ac−Ba)/(DC−Bd) where Ac was the fluorescence intensity of 1.8 nM Eu-labeled anti-FLAG antibody in the assay buffer at 665 nm.
The percentage of activation of protein DNA binding in the presence of a compound of the invention compared to the absence of the compound was denoted by a SC150 value, which indicated the concentration of the compound required to increase the DNA binding activity by 50%. The SC150 values were calculated using either Prism™ or ActivityBase™.

Row | SMILES | SC150 (μM)
1 | COCC(O)CN1CCC(Nc2cccc3c2cc(C#CCNc2ccc(S(C)(=O)=O)cc2OC)n3CC(F)(F)F)CC1 (stereo not shown) [Compound 7, 1-{4-[(2-{3-[(4-methanesulfonyl-2-methoxyphenyl)amino]prop-1-yn-1-yl}-1-(2,2,2-trifluoroethyl)-1H-indol-4-yl)amino]piperidin-1-yl}-3-methoxypropan-2-ol] | ′ (′ = 0 μM ≤ SC150 < 0.05 μM)
2 | COc1cc(S(C)(=O)=O)ccc1NCC#Cc1cc2c(N[C@H]3CC[C@H](N4CC5CC(C4)O5)CC3)cccc2n1CC(F)(F)F [Compound 10, 2-{3-[(4-methanesulfonyl-2-methoxyphenyl)amino]prop-1-yn-1-yl}-N-[(1r,4r)-4-{6-oxa-3-azabicyclo[3.1.1]heptan-3-yl}cyclohexyl]-1-(2,2,2-trifluoroethyl)-1H-indol-4-amine] | ′ (′ = 0 μM ≤ SC150 < 0.05 μM)
3 | COc1cc(S(C)(=O)=O)ccc1NCC#Cc1cc2c(N[C@@H]3CCN(C)C[C@@H]3F)cccc2n1CC(F)(F)F [Compound 13, N-[(3S,4R)-3-fluoro-1-methylpiperidin-4-yl]-2-{3-[(4-methanesulfonyl-2-methoxyphenyl)amino]prop-1-yn-1-yl}-1-(2,2,2-trifluoroethyl)-1H-indol-4-amine] | ′ (′ = 0 μM ≤ SC150 < 0.05 μM)
4 | CNC(=O)c1ccc(NCC#Cc2cc3c(N[C@@H]4CCN(C)C[C@@H]4F)cccc3n2CC(F)(F)F)c(OC)c1 [Compound 14, 4-{[3-(4-{[(3S,4R)-3-fluoro-1-methylpiperidin-4-yl]amino}-1-(2,2,2-trifluoroethyl)-1H-indol-2-yl)prop-2-yn-1-yl]amino}-3-methoxy-N-methylbenzamide] | ′ (′ = 0 μM ≤ SC150 < 0.05 μM)
5 | COc1cc(S(C)(=O)=O)ccc1NCC#Cc1cc2c(N(C)C)cccc2n1CC(F)(F)F [Molecule 702] | ′′′ (′′′ = 0.1 μM ≤ SC150 < 0.2 μM)
6 | COc1cc(S(C)(=O)=O)ccc1NCC#Cc1cc2c(NC(=O)NC3CCN(CCO)CC3)cccc2n1CC(F)(F)F [Molecule 1155] | ′′′′ (′′′′ = 0.2 μM ≤ SC150 < 1 μM)
7 | COc1cc(S(=O)(=O)Nc2ccon2)ccc1NCC#Cc1cc2c(NC3CCC(N(C)C)CC3)cccc2n1CC(F)(F)F (stereo not shown) [Molecule 1188] | ′ (′ = 0 μM ≤ SC150 < 0.05 μM)
8 | CNC(=O)c1ccc(NCC#Cc2cc3c(NC4CCC(N5CC(S(C)(=O)=O)C5)CC4)cccc3n2CC(F)(F)F)c(OC)c1 (stereo not shown) [Molecule 1330] | ′ (′ = 0 μM ≤ SC150 < 0.05 μM)
9 | CN1CCC(Nc2cccc3c2cc(C#CCNc2ccc(S(C)(=O)=O)cc2O)n3CC(F)(F)F)CC1 [Molecule 1623] | ′ (′ = 0 μM ≤ SC150 < 0.05 μM)
10 | COc1cc(S(N)(=O)=O)ccc1NCC#Cc1cc2c(NC3CCN(C[C@@H](O)CO)CC3)cccc2n1CC(F)(F)F [Molecule 1687] | ′ (′ = 0 μM ≤ SC150 < 0.05 μM)
11 | CNC(=O)c1ccc(NCC#Cc2cc3c(N[C@H]4CCN(C)C[C@H]4F)cccc3n2CC(F)(F)F)c(OC)c1 [Molecule 1921] | ′ (′ = 0 μM ≤ SC150 < 0.05 μM)
12 | COc1cc(C(N)=O)ccc1NCC#Cc1cc2c(N[C@@H]3CCN(C)C[C@@H]3F)cccc2n1CC(F)(F)F [Molecule 1938] | ′ (′ = 0 μM ≤ SC150 < 0.05 μM)
13 | COc1cc(C(N)=O)ccc1NCC#Cc1cc2c(N[C@H]3CCN(C)C[C@H]3F)cccc2n1CC(F)(F)F [Molecule 1939] | ′ (′ = 0 μM ≤ SC150 < 0.05 μM)
14 | COc1cc(C(N)=O)ccc1NCC#Cc1cc2c(NC3C[C@@H](C)O[C@@H](C)C3)cccc2n1CC(F)(F)F (stereo partly shown) [Molecule 2168] | ′′′ (′′′ = 0.1 μM ≤ SC150 < 0.2 μM)

same assay, conditions: concentration required to increase DNA binding activity of p53 Y220C by 50%; TABLE 11

Row | SMILES | SC150 (μM)
15 | CN1CC[C@H](Nc2cccc3c2cc(-c2ccc(CNC(=O)c4ccccc4)cc2)n3CC(F)(F)F)[C@H](F)C1 [Molecule 2239] | + (+ = 0 μM ≤ SC150 < 2 μM)
16 | CN1CC[C@H](Nc2cccc3c2cc(-c2ccc(CNC(=O)C4CC4)cc2)n3CC(F)(F)F)[C@H](F)C1 [Molecule 2240] | + (+ = 0 μM ≤ SC150 < 2 μM)

same assay, conditions: concentration required to increase DNA binding activity of p53 Y220C by 50%; TABLE 12

Row | SMILES | SC150 (μM)
17 | N#Cc1cccc(-c2cc3c(NC4CCS(=O)(=O)CC4)cccc3n2CC(F)(F)F)c1 [Molecule 2204] | ** (** = 0.1 μM ≤ SC150 < 0.5 μM)
18 | Cc1ccc(-c2cc3c(NC4CCS(=O)(=O)CC4)cccc3n2CC(F)(F)F)c(F)c1 [Molecule 2205] | ** (** = 0.1 μM ≤ SC150 < 0.5 μM)
19 | O=S1(=O)CCC(Nc2cccc3c2cc(-c2cccc(Cl)c2)n3CC(F)(F)F)CC1 [Molecule 2206] | * (* = 0 μM ≤ SC150 < 0.1 μM)
